Assay results reported in patent publication US20260250426A1, “AMPHIPHILIC CELLULOSE DERIVATIVES, METHODS OF MAKING, AND USES THEREOF” (Virginia Tech Intellectual Properties, Inc., priority 2022, published 2026).

Experiment: Polymer solubility in pH 6.8 buffer (visual inspection)
Experimental: A general workflow for evaluating cellulose ester derivatives for ASD applications can include evaluating polymer solubility, nucleation time, and surface tension. Polymer solubility was evaluated by examining solubility in pH 6.8 buffer and organic solvents. Nucleation induction time was measured using 9 different polymers and 3 model therapeutic compounds. Surface tension was determined by correlating surface tension and induction time.

## CA320S Glutarate [CA320GA]
  Water solubility (in words): water-soluble
